Source: ChEMBL document CHEMBL3988442, “University of Dundee, Small-Polar-MMV Screening Library” (2021)

Experiments:
[1] = microbe, parasite or virus in culture; details: Mycobacterium tuberculosis, 72 h, read-out: pIC50 (converted)
[2] = microbe, parasite or virus in culture; details: Mycobacterium tuberculosis, 96 h, read-out: pIC50 (converted)

SMILES	IC50 [1]	IC50 [2]
O=C(COC(=O)c1cccs1)NCc1ccco1	204 µM	> 501 µM
Nc1nnc(SCc2ccccc2F)s1	248 µM	157 µM
Cc1nn(CC(=O)N(C)C)c(=O)c2ccccc12	> 501 µM	> 501 µM
COc1cccc(OCC(=O)NCC2CCCO2)c1 (stereo not given)	194 µM	145 µM
O=C(CCc1ccccc1)N1CCCNCC1	192 µM	> 501 µM
OCCC1CCN(Cc2ccccc2)C1 (stereo not given)	> 501 µM	> 501 µM
CC1CCN(C(CN)c2cccs2)CC1 (stereo not given)	217 µM	263 µM
c1ccc(NCCNc2ccccn2)cc1	230 µM	217 µM
CN1CCc2nc(NC(=O)CC(C)(C)C)sc2C1	210 µM	127 µM
CN(C)c1ccc(CNC(=O)C2CCCO2)cc1 (stereo not given)	219 µM	197 µM
CNCc1nc(C(F)(F)F)no1	> 501 µM	> 501 µM
COc1cccc(CNc2nc(C)no2)c1	180 µM	> 501 µM
NCc1cccc(S(=O)(=O)NCc2cccc(F)c2)c1	232 µM	> 501 µM
CN(C)C(=O)COC(=O)c1ccc2ccccc2n1	142 µM	> 501 µM
Cc1ccc(-n2nnnc2NCC2CCCO2)cc1 (stereo not given)	113 µM	119 µM
Cc1cc(NC(C)c2ccco2)nc(N)n1 (stereo not given)	> 501 µM	> 501 µM
NC(=O)C1CCN(CCOc2ccc(Br)cc2)C1 (stereo not given)	> 501 µM	> 501 µM
c1cc2c(cc1CNc1nnc(C3CC3)o1)OCCO2	151 µM	179 µM
Cc1cc(C(=O)N(C)C[C@H](O)CO)cc(Cl)c1Br	403 µM	51.9 µM
CC1CCN(S(=O)(=O)NC(C)C(C)C)CC1 (stereo not given)	261 µM	> 501 µM
CCC(NC(=O)NCCCOC)C(C)C (stereo not given)	> 501 µM	> 501 µM
CCCN(C)S(=O)(=O)NC(C)c1ccc(OC)c(F)c1 (stereo not given)	153 µM	163 µM

SMILES	IC50 [1]	IC50 [2]
Cc1ccccc1OCCCNC(=O)NC[C@@H](C)O	> 501 µM	> 501 µM
CN(C)C(=O)c1csc(-c2ccccc2)n1	> 501 µM	> 501 µM
COCCN1CCCC(Nc2ccc(Cl)cn2)C1 (stereo not given)	145 µM	172 µM
CC(C)c1cccc(CN[C@H](CO)C(C)C)n1	303 µM	> 501 µM
CN(c1ccc(F)cc1)S(=O)(=O)N1CCCCC1	204 µM	267 µM
CC(C)(C)OC(=O)N1CCC(n2cc(N)cn2)CC1	202 µM	287 µM
CSCc1cccc(CNC(=O)c2cc[nH]n2)c1	308 µM	> 501 µM
O=c1ccc(Br)cn1Cc1noc(C2CC2)n1	78.4 µM	204 µM
COc1ccc2c(c1)NCC(C)O2 (stereo not given)	94.8 µM	214 µM
Nc1nccnc1C(=O)NCc1cc(Br)cs1	93.5 µM	132 µM
COc1cn(-c2ccccc2)nc1C(=O)NCC(C)C	282 µM	294 µM
CN1CCCN(Cc2cc(F)cc(F)c2)CC1=O	169 µM	211 µM
Cc1ccc(C(=O)NCc2ccc3c(c2)OCCO3)o1	115 µM	71.5 µM
COc1ccc(CNc2ccncc2F)cc1C#N	> 501 µM	> 501 µM
CC(C)CC(NC(N)=O)C(=O)Nc1cc(F)cc(F)c1 (stereo not given)	239 µM	> 501 µM
O=C(CSc1cnn[nH]1)OCc1ccccc1	67.9 µM	> 501 µM
CC[C@H](N)C(=O)N(C)Cc1cccc(OC(F)(F)F)c1	199 µM	> 501 µM
CN(CCN1CCCC1)S(=O)(=O)c1ccccc1	208 µM	> 501 µM
NCC(c1cccs1)N1CCCC1 (stereo not given)	156 µM	494 µM
CCCc1nnc(NCc2ccc(C)cn2)o1	138 µM	212 µM
CC(C)c1ccoc1C(=O)N(C)c1cc(C#N)ccn1	140 µM	> 501 µM
COc1ccc(C2CCN(CC(=O)NC(N)=O)C2)cc1 (stereo not given)	> 501 µM	> 501 µM

SMILES	IC50 [1]	IC50 [2]
NCCNS(=O)(=O)c1ccc(-c2ccccc2)cc1	160 µM	171 µM
N#Cc1cccnc1N1CCOC(c2nccs2)C1 (stereo not given)	138 µM	> 501 µM
CNc1cc(CN(C)Cc2cccs2)ccn1	276 µM	276 µM
NC(=O)c1ccsc1NC(=O)CCN1CCCC1	204 µM	248 µM
CN(Cc1cccc(C#N)c1)C(=O)C1CC1	> 501 µM	133 µM
Cc1ccccc1-c1nnn(CC(O)CC(F)(F)F)n1 (stereo not given)	102 µM	126 µM
CNCC(=O)Nc1cc(Cl)c(OCCOC)c(Cl)c1	> 501 µM	> 501 µM
Cc1nn(CCO)c(NCc2cccc(F)c2)c1C	> 501 µM	> 501 µM
COCCCOC1CN(C(=O)c2ccc(Cl)cn2)C1	2.73 µM	84.6 µM
CCCn1c(O)nnc1SCc1cccc(OC)n1	256 µM	436 µM
NCc1ccc(NC(=O)c2ccccc2O)cc1	159 µM	> 501 µM
O=C(Nc1cc[nH]n1)c1csc(I)c1	193 µM	> 501 µM
N[C@H]1CC[C@H](Oc2ncccc2Cl)CC1	125 µM	> 501 µM
CCNC(=O)C1CCCN(c2ccncc2Cl)C1 (stereo not given)	129 µM	281 µM
NCc1ccnc(OCC(F)(F)F)c1	50 µM	88.7 µM
O=C(NCCSCc1cccc(Cl)c1)C1CNCCO1 (stereo not given)	266 µM	259 µM
CNCc1nc2c(s1)CCCC2	221 µM	259 µM
Cc1nc(COc2ccc(C(=O)OCC#N)cc2)no1	> 501 µM	> 501 µM
OCC(O)CSCc1ncc(-c2cccc(Cl)c2)o1 (stereo not given)	211 µM	> 501 µM
CC(C)NC(=O)c1ccc(N2CCCCC2=O)cc1	> 501 µM	> 501 µM
CCOCC(O)CSc1nccn1-c1cccc(F)c1 (stereo not given)	189 µM	290 µM
c1csc(CSCCNC2=NCCN2)c1	> 501 µM	> 501 µM

SMILES	IC50 [1]	IC50 [2]
COc1ccc(CSCC(N)=O)cc1Br	241 µM	262 µM
O=C(C1Cc2cc(Cl)ccc2O1)N1CCOCC1 (stereo not given)	> 501 µM	> 501 µM
CCCC(=O)Nc1cc(C(=O)OC)cc(C(=O)OC)c1	249 µM	> 501 µM
CCC(O)CN1CCN(c2ncccc2Br)CC1 (stereo not given)	> 501 µM	> 501 µM
CN(Cc1ccc(Br)cc1)C(=O)CSc1nc(N)n[nH]1	152 µM	> 501 µM
N[C@@H]1C[C@H]1c1c(F)cccc1F	> 501 µM	> 501 µM
C[C@H](c1ccc(Cl)cc1)n1c(CCN)n[nH]c1=O	38.3 µM	> 501 µM
NC1CCN(c2ncc(C(F)(F)F)cc2Cl)C1 (stereo not given)	123 µM	83.4 µM
COc1cc(OC)cc(N2CCC(N)C2)c1 (stereo not given)	232 µM	213 µM
COc1ccnc(CN2CCCC2CSC)c1OC (stereo not given)	180 µM	> 501 µM
COCCCOc1ccc2c(c1)OCCO2	92.8 µM	109 µM
Fc1ccc(NCC2CCC3(CC2)OCCO3)nc1	264 µM	205 µM
N#Cc1cccnc1N1CCCNCC1	480 µM	> 501 µM
CCOc1ccc(CNS(=O)(=O)N(C)C)cc1C	262 µM	> 501 µM
CCS(=O)(=O)N(C)C(=O)CCc1c[nH]c2ccccc12	44.8 µM	97.3 µM
COc1ccc(NC(=O)NC(C)(C)C(C)(C)O)cc1	186 µM	> 501 µM
Cn1cc(Br)cc1C(=O)NCC1CCCO1 (stereo not given)	225 µM	> 501 µM
CC1CCN(C(=O)c2cnn(-c3cccnc3)c2)CC1	307 µM	67.4 µM
COc1ccccc1CC(=O)Nc1ncc(C(N)=O)s1	> 501 µM	> 501 µM
CC1CCCCN1S(=O)(=O)N1CCNCC1 (stereo not given)	> 501 µM	> 501 µM
Cc1cccc(NCCNC(=O)c2ccccc2)n1	> 501 µM	> 501 µM
CN(C)C(=O)c1cc(-c2cccs2)on1	> 501 µM	254 µM

SMILES	IC50 [1]	IC50 [2]
CS(=O)(=O)NCc1ccnc(Oc2ccc(F)cc2)c1	154 µM	> 501 µM
Cn1cc(Cn2nc(-c3ccco3)oc2=O)cn1	187 µM	> 501 µM
CC(C)CC(O)CNC(=O)c1cc(F)ccc1F (stereo not given)	238 µM	57.2 µM
Cc1[nH]ncc1C(=O)NCCCSCC(C)C	102 µM	> 501 µM
CN(CCC#N)C(=O)COC(=O)c1ccccc1Br	139 µM	> 501 µM
O=C1C=CC(=O)N1Cc1ccc(Cl)cc1	129 µM	174 µM
Cc1noc(C)c1CNC(=O)c1csc(S(N)(=O)=O)c1	> 501 µM	> 501 µM
COc1ccc(OCCSCC(=O)NCCC#N)cc1	195 µM	288 µM
CC(C)(C)OC(=O)N1CCCC1CN (stereo not given)	368 µM	207 µM
NC(=O)C1CCN(C(=O)CCc2ccc(Cl)cc2Cl)C1 (stereo not given)	157 µM	284 µM
CC(NC(=O)CSc1nc(=O)[nH]n1C)c1cccs1 (stereo not given)	175 µM	234 µM
CC(C)(O)Cn1nnc(-c2cccs2)n1	> 501 µM	> 501 µM
CCN1CCCC1CNC(=O)c1cccc(C)n1 (stereo not given)	> 501 µM	> 501 µM
COCC(C)Oc1cc(C)ccc1CN (stereo not given)	149 µM	228 µM
CC(NC(=O)CCNC(=O)c1ccco1)c1cccs1 (stereo not given)	> 501 µM	> 501 µM
COc1cccc(CN(C)C(=O)c2occc2C)n1	188 µM	279 µM
CCCc1noc(C(C)Nc2cccc(C(N)=O)c2)n1 (stereo not given)	56.4 µM	156 µM
NCCNS(=O)(=O)c1cccc(I)c1	326 µM	> 501 µM
CCCN(CCC(=O)NC(=O)NC)CC1CCCCO1 (stereo not given)	93.8 µM	240 µM
CN(C)S(=O)(=O)N1CCC(Oc2ccccc2Cl)CC1	343 µM	232 µM
COc1cccc(CNc2ccccc2CO)n1	> 501 µM	> 501 µM
Cc1ccccc1N1C(=O)C=CC1=O	157 µM	254 µM
